Results on 2 molecules are retold here after the NIST ThermoML archive (doi:10.1021/acs.jced.8b01053).

For the data set the following is noted: Liquid, Ebulliometric method (Recirculating still).

± gives the expanded uncertainty stated by the source.

For the molecule `CCOC(C)=O` [ethyl acetate], the vapor or sublimation pressure (as a rule, the equilibrium pressure above the liquid or solid) (330.01 K) is listed as 50 ± 1 kPa and the “vapor or sublimation pressure” value (349.53 K) came to 100 ± 1 kPa.

Regarding `CC(=O)OCCC(C)C` [3-methylbutyl ethanoate], the “vapor or sublimation pressure” value (391.07 K) is 50 ± 1 kPa and the “vapor or sublimation pressure” value (413.46 K) is 100 ± 1 kPa.
